# Test results from publication PMC9775191, “A Subset Screen of the Compounds Australia Scaffold Library Identifies 7-Acylaminodibenzoxazepinones as Potent and Selective Hits for Anti-Giardia Drug Discovery” (Biomedicines, 2022).
# System: G. duodenalis BRIS/91/HEPU/1279
# Assay: Primary Giardia screen at 10 µM (live-cell imaging, automated counting)
# Type: cell-based, Giardia duodenalis
# Conditions: for % Inhibition n=1 48h / % Inhibition n=1 24h: first singlicate assay; for % Inhibition n=2 24h / % Inhibition n=2 48h: re-assessment
# In short: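 Percent growth versus 0.2% DMSO vehicle, background-corrected with media-only wells, is reported at 24 and 48 h from automated live-cell counts. Testing used 10 μM final in a 3% O2 atmosphere, with plate quality checked by Z' factor.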
Structure (SMILES),% Inhibition n=1 48h,also measured
O=C(Nc1cc(Cl)ccc1O)c1cc(-c2ccc(F)cc2)no1 [SN00787460],3.6%,–
O=C(Cn1c(-c2ccccn2)noc1=O)N1CCc2sccc2C1 [SN00781376],0.0%,–
COc1cccc(CNC(=O)Cn2nc(C(=O)Nc3ccccc3)ccc2=O)c1 [SN00793567],4.7%,–
CN1CC(c2nc3ccccc3[nH]2)CC1=O (stereo not drawn) [SN00785951],0.0%,–
CCc1csc(C2CCCN(C(=O)c3ccc4c(c3)OCO4)C2)n1 (stereo not drawn) [SN00781524],0.0%,–
CCC(=O)N1CCCC1C1CCCN1Cc1cn2c(C)cccc2n1 (stereo not drawn) [SN00777763],16.6%,–
Cc1c(F)cccc1NC(=O)Nc1ccc2c(c1)CCN2S(C)(=O)=O [SN00796291],21.1%,–
COc1ccc(CN2CCC3(CC2)N=C(c2ccc(C)cc2)C(=O)N3)cc1 [SN00792212],16.2%,–
COCCNC(=O)C1(C)Cn2c(cc3ccsc32)C(=O)N1c1ccc(OC)c(OC)c1 (stereo not drawn) [SN00789817],0.0%,–
CC(=O)Nc1cc(NC(=O)c2cc(-c3ccccc3)nc3c2cnn3Cc2cccnc2)ccc1F [SN00776945],50.1%,Average % Inhibition 24h: 0.0%; % Inhibition n=1 24h: 0.0%; % Inhibition n=2 24h: 0.0%; Average % Inhibition 48h: 25.1%; % Inhibition n=2 48h: 0.0%
COc1cccc(-c2noc(-c3cc(N4CCN(C(C)=O)CC4)nc4ccccc34)n2)c1OC [SN00796396],7.7%,–
Cc1cccc(-c2cc(N3CCN(C(=O)c4cc(Cl)ccc4F)CC3)ncn2)c1 [SN00798065],47.1%,–
CN(C)C(=O)c1[nH]nc2c1CN(C(=O)CCc1ccccc1)CC2 [SN00800269],0.0%,–
O=C(Nc1nnc(-c2ccccn2)[nH]1)C1CC(=O)N(CC(F)(F)F)C1 (stereo not drawn) [SN00776806],9.5%,–
CCC1c2ccsc2CCN1C(=O)c1cc(-c2csc(C)n2)c[nH]1 (stereo not drawn) [SN00778239],3.8%,–
CC(C)c1ccc(-c2noc(N3CCC(C(=O)N4CCN(C5CCCCC5)CC4)CC3)n2)cc1 [SN00793072],11.6%,–
COc1ccc(-c2noc(-c3cc(-c4cccs4)n[nH]3)n2)cc1 [SN00791300],15.5%,–
COc1ccc(Nc2cc(C)nc(N3CCN(C(=O)c4ccccc4)CC3)n2)cc1 [SN00793485],58.6%,Average % Inhibition 24h: 5.5%; % Inhibition n=1 24h: 11.1%; % Inhibition n=2 24h: 0.0%; Average % Inhibition 48h: 29.3%; % Inhibition n=2 48h: 0.0%
Cc1ccccc1Nc1nc(N)nc(CN2C(=O)NC(C)(c3cccc4ccccc34)C2=O)n1 (stereo not drawn) [SN00773551],21.3%,–
CCc1c(C2CCN(C(=O)c3cnccn3)CC2)noc1N [SN00798959],12.1%,–
CCCCNC(=O)c1cccc(N2CCCC2=O)c1 [SN00784930],4.7%,–
Cc1nn(C)c(N2CCC(C(=O)NC(C)C(C)C)CC2)c1[N+](=O)[O-] (stereo not drawn) [SN00775640],7.0%,–
O=C(C1CC(=O)N(c2cccc(-c3noc(C4CCC4)n3)c2)C1)N1CCN(c2ccccc2F)CC1 (stereo not drawn) [SN00789791],5.7%,–
O=C(CC1COc2ccccc2N1Cc1ccccc1)N1CCc2ccccc2C1 (stereo not drawn) [SN00790679],0.0%,–

Structure (SMILES),% Inhibition n=1 48h,also measured
O=C(c1ccc(F)cc1)N1CCc2[nH]nc(C(=O)N3CCN(c4ccc(F)cc4)CC3)c2C1 [SN00802630],0.9%,–
CC(C(=O)NC1CCCCCC1)n1c(=O)c2cccn2c2cccnc21 (stereo not drawn) [SN00787599],8.7%,–
COc1ccc(CN2CCN(C(=O)c3c(C)oc4c3C3=NCCN3C=N4)CC2)c(OC)c1OC [SN00791620],7.4%,–
CCCCN(CCCNC(=O)c1c(C)oc2nc[nH]c(=O)c12)Cc1ccccc1 [SN00784186],16.8%,–
Cc1ccc(N2CC(C(=O)N3CCCC3c3nc(-c4cccc(C)c4)no3)CC2=O)cc1 (stereo not drawn) [SN00797413],0.0%,–
Cc1ccc(OCC(=O)NCC2(N3CCN(C)CC3)CCCCC2)cc1 [SN00786260],9.4%,–
CCN(CC)C(=O)C1CSCN1C(=O)c1cc(C)nc2c1nc1n2CCCCC1 (stereo not drawn) [SN00779876],62.1%,Average % Inhibition 24h: 1.0%; % Inhibition n=1 24h: 1.9%; % Inhibition n=2 24h: 0.0%; Average % Inhibition 48h: 31.1%; % Inhibition n=2 48h: 0.0%
O=[N+]([O-])c1ccccc1Sc1nnnn1C1CCOCC1 [SN00782002],15.2%,Average % Inhibition 24h: 6.2%; % Inhibition n=1 24h: 12.3%; % Inhibition n=2 24h: 0.0%; Average % Inhibition 48h: 8.6%; % Inhibition n=2 48h: 2.0%
Cc1cc(C2CCCN2Cc2cc(-c3ccco3)on2)on1 (stereo not drawn) [SN00777724],35.3%,–
Cc1ccc(NS(=O)(=O)c2c(C)n[nH]c2C)cc1 [SN00784820],8.8%,–
Cc1ccc(-c2cc(C(=O)NCc3cn(C)nc3C)c3ccccc3n2)cc1C [SN00783737],0.0%,–
O=S(=O)(c1ccc(-c2cnc(C3CC3)o2)cc1)N1CCCCC1 [SN00792043],8.3%,–
O=C(NCCSc1ccc(Cl)cc1)c1cc(S(=O)(=O)N2CCOCC2)c[nH]1 [SN00777799],7.9%,–
COc1ccc(C2CCC(=O)N2CCN2CCOCC2)cc1 (stereo not drawn) [SN00801430],34.6%,–
Cc1ccccc1NC(=O)c1c(C)oc2ncnc(N3CCCCC3)c12 [SN00788425],15.9%,–
C/C(=C/C(=O)N1CCN(C(=O)c2ccc3[nH]cnc3c2)CC1)C1CC1 [SN00774586],5.9%,–
Cc1ccc([N+](=O)[O-])cc1N1CC(=O)C(c2nc3ccccc3[nH]2)=C1N [SN00785776],21.1%,–
Cc1nc(-c2ccncc2)nc2c1CCC(=O)N2CCC1=CCCCC1 [SN00802205],0.0%,–
Cc1nc(N2CCCCC2)cc(N2CCN(C(=O)c3cccc(F)c3)CC2)n1 [SN00786431],7.0%,–
O=C1CC(c2noc(-c3ccc(F)cc3)n2)CN1c1ccc(F)cc1 (stereo not drawn) [SN00801778],9.0%,–
CSc1ccc(-c2noc(-c3ccc4c(=O)n(Cc5ccccc5)c(=O)[nH]c4c3)n2)cc1 [SN00789400],6.5%,–
CCNC(=O)c1c(C)oc2c1CNCC2 [SN00802246],10.3%,–
O=C(c1cc(C2CC2)nc2ccccc12)N1CC2CCC1C2 (stereo not drawn) [SN00777604],18.4%,–
COc1ccc(CNC(=O)c2[nH]c3cc(C)sc3c2CN2CCCC2)cc1 [SN00798517],35.5%,–

Structure (SMILES),% Inhibition n=1 48h,also measured
COc1cccc(C(=O)NC2(C(F)(F)F)C(=O)N(Cc3ccccc3)C(C)=C2C(C)=O)c1 (stereo not drawn) [SN00784101],2.9%,–
COc1ccc2c(c1)CCCN(C(=O)c1nnc3ccccc3c1N)C2 [SN00773025],10.7%,–
Cc1ccccc1-n1nc(C(=O)N(C)Cc2ccco2)nc1CCc1ccccc1 [SN00802642],5.4%,–
CC1(c2nc(C3CC3)no2)CCCN(C(=O)CCC2CCCC2)C1 (stereo not drawn) [SN00801392],3.8%,–
COc1ccc2oc(-c3noc(C(=O)NCCN4CCCCCC4)n3)c(C)c2c1 [SN00795214],52.1%,Average % Inhibition 24h: 11.6%; % Inhibition n=1 24h: 16.8%; % Inhibition n=2 24h: 6.3%; Average % Inhibition 48h: 56.6%; % Inhibition n=2 48h: 61.1%
CCOc1ccc(CCNC(=O)c2c(C)oc3c2C2=NCCN2C=N3)cc1OCC [SN00791607],17.8%,–
O=C(Nc1ccc(Br)cc1)c1ccc(F)c(S(=O)(=O)NCCc2ccccc2)c1 [SN00794458],3.9%,–
Cc1nc(-c2ccc(C(=O)N3CCCC3C(=O)Nc3ccc(C(C)C)cc3)cc2)no1 (stereo not drawn) [SN00793315],0.0%,–
CCOc1ccc(-n2c(=O)c3c4c(sc3n(Cc3cccnc3)c2=O)CCC4)cc1 [SN00784617],0.0%,–
CCc1nnc2sc(-c3ccc(CNC(=O)c4ccc(Br)o4)cc3)nn12 [SN00794046],48.2%,–
O=C(NCc1ccccc1)c1ccc(-c2cc(N3CCOCC3)ncn2)cc1 [SN00794761],12.2%,–
COc1cc(NC(=O)N2CCN(c3cc(N(C)C)nc(C)n3)CC2)cc(OC)c1 [SN00786504],55.1%,Average % Inhibition 24h: 4.9%; % Inhibition n=1 24h: 9.8%; % Inhibition n=2 24h: 0.0%; Average % Inhibition 48h: 27.5%; % Inhibition n=2 48h: 0.0%
CC(=O)Nc1cc(C(=O)NCCCN2CCC(C)CC2)ccc1S(=O)(=O)c1ccc(Cl)cc1 [SN00794609],23.9%,–
COc1ccc(CCC(=O)N2CCCN(C(=O)c3cc(-c4cccc(Cl)c4)on3)CC2)cc1 [SN00782943],0.0%,–
Cn1nc(C(=O)NCCCN2CCN(c3ccccc3)CC2)c2c1-c1ccccc1OC2 [SN00787244],0.0%,–
Cc1ccc(-c2nnn(CC(=O)N3CCCCCC3c3cccn3C)n2)cc1 (stereo not drawn) [SN00778086],56.5%,Average % Inhibition 24h: 2.1%; % Inhibition n=1 24h: 0.0%; % Inhibition n=2 24h: 4.1%; Average % Inhibition 48h: 28.3%; % Inhibition n=2 48h: 0.0%
O=C(N[C@H]1C[C@@H]2C[C@H]1CN2S(=O)(=O)c1ccc2c(c1)CCCC2)c1cccnc1 [SN00800980],0.6%,–
O=S1(=O)C[C@H](NCc2ccccn2)[C@@H](S(=O)(=O)c2ccccc2)C1 [SN00786609],0.0%,–
Cn1cnc2c1CCN(Cc1csc(-c3ccco3)n1)C2 [SN00781992],24.5%,–
CCN(c1cccc(C)c1)S(=O)(=O)c1cc(-c2nc(C)c(C)s2)sc1C [SN00797239],10.7%,–
CSc1ccc(Cl)c(C(=O)N2CCCN(C(=O)c3ccncc3)CC2)c1 [SN00771952],45.6%,–
CCn1cc(CN2CCCN(C(=O)C(C)n3cncn3)CC2)cn1 (stereo not drawn) [SN00782395],0.0%,–
